Results published in patent US11926593B1, “6′-(3-bromophenyl)-2′-methoxy-3,4′-bipyridine-3′-carbonitrile as an antioxidant compound” (KING FAISAL UNIVERSITY, priority 2023, dated 2024).

Assay: DPPH radical scavenging antioxidant test
Assay type: biochemical
Conditions: 517 nm; for Inhibition (radical scavenging inhibition): DPPH 0.2 mL (0.75 mM), compound 3 μM in ethanol, 30 minutes in the dark
Description: The antioxidant activity of 6′-(3-bromophenyl)-2′-methoxy-3,4′-bipyridine-3′-carbonitrile was investigated by 2,2-diphenyl-1-picrylhydrazyl (DPPH) in vitro tests that employ vitamin C as the positive control.
The antioxidant properties of the 6′-(3-bromophenyl)-2′-methoxy-3,4′-bipyridine-3′-carbonitrile compound were studied by adding 0.2 mL DPPH (0.75 mM)) to 6′-(3-bromophenyl)-2′-methoxy-3,4′-bipyridine-3′-carbonitrile (3 μM) (4) in ethanol. After 30 minutes of incubation in the dark, the absorbance was read against a blank at 517 nm. Ascorbic acid (vitamin C) was used as standard antioxidants (positive control). A blank sample was prepared by 0.2 mL of DPPH in 3 mL ethanol. A negative control sample was run using ethanol instead of the sample. The radical scavenging inhibition was calculated using the following equation: […]
The antioxidant activity for the synthesized compound is listed in Table 1, using Vitamin C as a reference.

Structure (SMILES)	Inhibition (radical scavenging inhibition) [%]	antioxidant potential compared to vitamin C (DPPH in vitro test, vitamin C as positive control)
COc1nc(-c2cccc(Br)c2)cc(-c2cccnc2)c1C#N [Product 4, 6′-(3-bromophenyl)-2′-methoxy-3,4′-bipyridine-3′-carbonitrile]	50	high potential as an antioxidant
O=C1O[C@H]([C@@H](O)CO)C(O)=C1O [vit c, Ascorbic acid, reference compound]	74	
